According to patent US11076595B2, “1-(n,n-disubstituted carbamoyl) 4-(substituted sulfonyl)triazolin-5-one derivative, 4-(n,n-disubstituted carbamoyl) 1-(substituted sulfonyl)triazolin-5-one derivative, and herbicide containing said derivative as active ingredient” (HOKKO CHEMICAL INDUSTRY CO., LTD., priority 2017, dated 2021):

How the values were obtained:
Format in all cases: in vivo
[1] = test system: Echinochloa crus-galli; test: Test Example 11: herbicidal effect test by soil treatment in paddy field; conditions: 120 g/10a active ingredient, 14 days after treatment
Method in brief: (§1)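 Puddled paddy soil with N:P:K 17:17:17 fertilizer in Wagner pots; 30 seeds per species sown at 0–1 cm, flooded to about 3 cm, kept in a glass greenhouse. Water-diluted emulsifiable concentrate dripped in immediately after sowing at 120 g a.i. per 10 are. Suppression from dry weight versus untreated at 14 days.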

[2] = test system: Lindernia pyxidaria; test: as above; conditions: 120 g/10a active ingredient, 14 days after treatment
Method in brief: as §1

[3] = test system: Monochoria vaginalis; test: as above; conditions: 120 g/10a active ingredient, 14 days after treatment
Method in brief: as §1

[4] = test system: Scirpus juncoides; test: as above; conditions: 120 g/10a active ingredient, 14 days after treatment
Method in brief: as §1

[5] = test system: Echinochloa crus-galli; test: Test Example 12: herbicidal effect test by treatment during growing period in paddy field; conditions: 120 g/10a; treatment seven days after sowing in flooded paddy pot; assessed 14 days after treatment
Method in brief: (§2)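 Puddled paddy soil in Wagner pots, 30 seeds per species sown 0-1 cm deep, flooded to about 3 cm in a greenhouse. Seven days after sowing, water-diluted emulsifiable concentrate was dripped in at 120 g active ingredient per 10 are. Suppression (%) from dry weight versus untreated at 14 days, two replicates.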

[6] = test system: Lindernia pyxidaria; test: as above; conditions: 120 g/10a; treatment seven days after sowing in flooded paddy pot; assessed 14 days after treatment
Method in brief: as §2

[7] = test system: Monochoria vaginalis; test: as above; conditions: 120 g/10a; treatment seven days after sowing in flooded paddy pot; assessed 14 days after treatment
Method in brief: as §2

[8] = test system: Scirpus juncoides; test: as above; conditions: 120 g/10a; treatment seven days after sowing in flooded paddy pot; assessed 14 days after treatment
Method in brief: as §2

[9] = test system: Amaranthus viridis; test: Test Example 13: herbicidal effect test by soil treatment in upland field; conditions: 120 g/10a, 14 days after treatment
Method in brief: (§3)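 Field alluvial soil in 36 cm^2 pots had 20 seeds of each weed mixed into its top 1 cm. One day after sowing, a water-diluted emulsifiable concentrate was sprayed onto the soil at 100 liter per 10 are (120 g active ingredient per 10 are), with two replicates. Weed suppression (%) was assessed after 14 days.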

[10] = test system: Chenopodium album; test: as above; conditions: 120 g/10a, 14 days after treatment
Method in brief: as §3

[11] = test system: Echinochloa crus-galli; test: as above; conditions: 120 g/10a, 14 days after treatment
Method in brief: as §3

[12] = test system: crabgrass; test: as above; conditions: 120 g/10a, 14 days after treatment
Method in brief: as §3

[13] = test system: Chenopodium album; test: Test Example 14: herbicidal effect test by foliage treatment in upland field; conditions: 7 days after sowing, 120 g/10a, 14 days after treatment
Method in brief: (§4)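 Post-sowing spray at day 7, 120 g a.i./10 are in 100 L water/10 are; alluvial soil pots, duplicate plots; endpoint day 14, % suppression from dry weight relative to untreated.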

[14] = test system: crabgrass; test: as above; conditions: 7 days after sowing, 120 g/10a, 14 days after treatment
Method in brief: as §4

[15] = test system: Amaranthus viridis; test: as above; conditions: 7 days after sowing, 120 g/10a, 14 days after treatment
Method in brief: as §4

[16] = test system: Echinochloa crus-galli; test: as above; conditions: 7 days after sowing, 120 g/10a, 14 days after treatment
Method in brief: as §4

## CC(C)N(C(=O)n1cnn(S(=O)(=O)C2CC2)c1=O)c1cccc(F)c1F [Compound 11-189]
[1]
  Weed suppression rate (%) Echinochloa crus-galli: 100%
[2]
  Weed suppression rate (%) Lindemia pyxidaria: 100%
[3]
  Weed suppression rate (%) Monochoria vaginalis: 90%
[4]
  Weed suppression rate (%) Scirpus juncoides: 90%
[5]
  Weed suppression rate (%) Echinochloa crus-galli: 100%
[6]
  Weed suppression rate (%) Lindemia pyxidaria: 80%
[7]
  Weed suppression rate (%) Monochoria vaginalis: 100%
[8]
  Weed suppression rate (%) Scirpus juncoides: 100%
[9]
  herbicidal effect, Amaranthus viridis: 100%
[10]
  herbicidal effect, Chenopodium album: 90%
[11]
  herbicidal effect, Echinochloa crus-galli: 100%
[12]
  herbicidal effect, Crabgrass: 100%
[13]
  herbicidal effect, Chenopodium album: 80%
[14]
  herbicidal effect, Crabgrass: 100%
[15]
  herbicidal effect, Amaranthus viridis: 60%
[16]
  herbicidal effect, Echinochloa crus-galli: 100%

## Cc1ccc(N(C(=O)n2cnn(S(=O)(=O)C(C)C)c2=O)C(C)C)c(F)c1 [Compound 11-73]
[1]
  Weed suppression rate (%) Echinochloa crus-galli: 90%
[2]
  Weed suppression rate (%) Lindemia pyxidaria: 80%
[3]
  Weed suppression rate (%) Monochoria vaginalis: 80%
[4]
  Weed suppression rate (%) Scirpus juncoides: 90%
[5]
  Weed suppression rate (%) Echinochloa crus-galli: 90%
[6]
  Weed suppression rate (%) Lindemia pyxidaria: 80%
[7]
  Weed suppression rate (%) Monochoria vaginalis: 80%
[8]
  Weed suppression rate (%) Scirpus juncoides: 90%
[9]
  herbicidal effect, Amaranthus viridis: 90%
[10]
  herbicidal effect, Chenopodium album: 80%
[11]
  herbicidal effect, Echinochloa crus-galli: 80%
[12]
  herbicidal effect, Crabgrass: 90%
[13]
  herbicidal effect, Chenopodium album: 80%
[14]
  herbicidal effect, Crabgrass: 90%
[15]
  herbicidal effect, Amaranthus viridis: 90%
[16]
  herbicidal effect, Echinochloa crus-galli: 80%

## CC(C)N(C(=O)n1cnn(S(=O)(=O)C2CCCCC2)c1=O)c1ccccc1 [Compound 11-283]
[1]
  Weed suppression rate (%) Echinochloa crus-galli: 100%
[2]
  Weed suppression rate (%) Lindemia pyxidaria: 90%
[3]
  Weed suppression rate (%) Monochoria vaginalis: 70%
[4]
  Weed suppression rate (%) Scirpus juncoides: 90%
[5]
  Weed suppression rate (%) Echinochloa crus-galli: 90%
[6]
  Weed suppression rate (%) Lindemia pyxidaria: 90%
[7]
  Weed suppression rate (%) Monochoria vaginalis: 90%
[8]
  Weed suppression rate (%) Scirpus juncoides: 90%
[9]
  herbicidal effect, Amaranthus viridis: 90%
[10]
  herbicidal effect, Chenopodium album: 80%
[11]
  herbicidal effect, Echinochloa crus-galli: 80%
[12]
  herbicidal effect, Crabgrass: 90%
[13]
  herbicidal effect, Chenopodium album: 80%
[14]
  herbicidal effect, Crabgrass: 90%
[15]
  herbicidal effect, Amaranthus viridis: 90%
[16]
  herbicidal effect, Echinochloa crus-galli: 80%

## CC(C)N(C(=O)n1cnn(S(=O)(=O)N(C)C)c1=O)c1ccc(Cl)cn1 [Compound 11-1090]
[1]
  Weed suppression rate (%) Echinochloa crus-galli: 100%
[2]
  Weed suppression rate (%) Lindemia pyxidaria: 100%
[3]
  Weed suppression rate (%) Monochoria vaginalis: 60%
[4]
  Weed suppression rate (%) Scirpus juncoides: 90%
[5]
  Weed suppression rate (%) Echinochloa crus-galli: 100%
[6]
  Weed suppression rate (%) Lindemia pyxidaria: 90%
[7]
  Weed suppression rate (%) Monochoria vaginalis: 60%
[8]
  Weed suppression rate (%) Scirpus juncoides: 90%
[9]
  herbicidal effect, Amaranthus viridis: 50%
[10]
  herbicidal effect, Chenopodium album: 50%
[11]
  herbicidal effect, Echinochloa crus-galli: 80%
[12]
  herbicidal effect, Crabgrass: 90%
[13]
  herbicidal effect, Chenopodium album: 40%
[14]
  herbicidal effect, Crabgrass: 90%
[15]
  herbicidal effect, Amaranthus viridis: 40%
[16]
  herbicidal effect, Echinochloa crus-galli: 90%

## CC(C)CN(C)S(=O)(=O)n1ncn(C(=O)N(c2ccc(F)cc2F)C(C)C)c1=O [Compound 11-1101]
[1]
  Weed suppression rate (%) Echinochloa crus-galli: 90%
[2]
  Weed suppression rate (%) Lindemia pyxidaria: 90%
[3]
  Weed suppression rate (%) Monochoria vaginalis: 90%
[4]
  Weed suppression rate (%) Scirpus juncoides: 90%
[5]
  Weed suppression rate (%) Echinochloa crus-galli: 90%
[6]
  Weed suppression rate (%) Lindemia pyxidaria: 80%
[7]
  Weed suppression rate (%) Monochoria vaginalis: 80%
[8]
  Weed suppression rate (%) Scirpus juncoides: 90%
[9]
  herbicidal effect, Amaranthus viridis: 90%
[10]
  herbicidal effect, Chenopodium album: 80%
[11]
  herbicidal effect, Echinochloa crus-galli: 80%
[12]
  herbicidal effect, Crabgrass: 90%
[13]
  herbicidal effect, Chenopodium album: 80%
[14]
  herbicidal effect, Crabgrass: 90%
[15]
  herbicidal effect, Amaranthus viridis: 90%
[16]
  herbicidal effect, Echinochloa crus-galli: 80%

## CC(C)N(C(=O)n1cnn(S(=O)(=O)C2CC2)c1=O)c1ccc(F)cc1 [Compound 11-162]
[1]
  Weed suppression rate (%) Echinochloa crus-galli: 100%
[2]
  Weed suppression rate (%) Lindemia pyxidaria: 90%
[3]
  Weed suppression rate (%) Monochoria vaginalis: 90%
[4]
  Weed suppression rate (%) Scirpus juncoides: 90%
[5]
  Weed suppression rate (%) Echinochloa crus-galli: 90%
[6]
  Weed suppression rate (%) Lindemia pyxidaria: 80%
[7]
  Weed suppression rate (%) Monochoria vaginalis: 80%
[8]
  Weed suppression rate (%) Scirpus juncoides: 90%
[9]
  herbicidal effect, Amaranthus viridis: 90%
[10]
  herbicidal effect, Chenopodium album: 80%
[11]
  herbicidal effect, Echinochloa crus-galli: 80%
[12]
  herbicidal effect, Crabgrass: 90%
[13]
  herbicidal effect, Chenopodium album: 80%
[14]
  herbicidal effect, Crabgrass: 90%
[15]
  herbicidal effect, Amaranthus viridis: 90%
[16]
  herbicidal effect, Echinochloa crus-galli: 80%

## CC(C)N(C(=O)n1cnn(S(=O)(=O)C(C)C)c1=O)c1ccccc1 [Compound 11-48]
[1]
  Weed suppression rate (%) Echinochloa crus-galli: 90%
[2]
  Weed suppression rate (%) Lindemia pyxidaria: 80%
[3]
  Weed suppression rate (%) Monochoria vaginalis: 80%
[4]
  Weed suppression rate (%) Scirpus juncoides: 90%
[5]
  Weed suppression rate (%) Echinochloa crus-galli: 90%
[6]
  Weed suppression rate (%) Lindemia pyxidaria: 70%
[7]
  Weed suppression rate (%) Monochoria vaginalis: 90%
[8]
  Weed suppression rate (%) Scirpus juncoides: 70%
[9]
  herbicidal effect, Amaranthus viridis: 90%
[10]
  herbicidal effect, Chenopodium album: 80%
[11]
  herbicidal effect, Echinochloa crus-galli: 80%
[12]
  herbicidal effect, Crabgrass: 90%
[13]
  herbicidal effect, Chenopodium album: 70%
[14]
  herbicidal effect, Crabgrass: 100%
[15]
  herbicidal effect, Amaranthus viridis: 40%
[16]
  herbicidal effect, Echinochloa crus-galli: 90%
